# Measurements published in patent publication US8871812B2, “Therapeutic regimen comprising PEG-interferon, ribavirin and VX-950 for the treatment of hepatitis” (priority 2008, dated 2014).
# Marks after values point to notes of the source that are not given here.
# How the values were obtained:
# [1] = male, human, in vivo
# Protocol: VX-950 was examined in a randomized, double-blind, placebo-controlled single-dose escalation study. 25 healthy male volunteers were enrolled and each received multiple single doses of VX-950 (at least 7 days apart, 3 doses of VX-950 at increasing dose levels) and 1 dose of placebo.
# A dose escalation scheme was used that combined dose doubling and modified Fibonacci to be aggressive in the lower dose range and conservative in the higher dose range.
# A pharmacokinetics analysis was performed using the statistical moment approach.
# [2] = C208 Phase 2 study: safety, tolerability and discontinuations
# genotype 1 hepatitis C = assay: Phase 1b 14-day study of VX-950 alone or with peginterferon alfa-2a, followed by peginterferon alfa-2a/ribavirin: HCV RNA; assay type: in vivo, human
# Text: This study was designed to provide information on the kinetics of HCV following treatment with VX-950 and peginterferon alfa-2a administered over 14 days.
# This study randomized twenty treatment-naïve patients with chronic genotype 1 hepatitis C infection to three dosing arms (Table 6). At the completion of the 14-day study, 19 of 20 patients chose to begin peginterferon alfa-2a/ribavirin, starting within 5 days of completing the 14-day dosing period; as the other one declined to take the combination of Peg-IRN-2a and ribavirin. Clinic visits were conducted at the discretion of the investigators, after completion of the 1-week and 12-week study-mandated follow-up visits. Nineteen patients have been followed through 24 weeks after the completion of the study dosing. After discussion with the treating physicians, ten (4 in VX-950 and 6 in VX-950/peginterferon alfa-2a) patients stopped peginterferon alfa-2a/ribavirin treatment at 24 weeks.
# neopterin = assay: Serum neopterin concentration (competitive ELISA) during 14-day VX-950 dosing; assay type: in vivo, human; conditions: 450 mg q8h and 1250 mg q12h dose groups, versus 750 mg q8h
# Protocol: (§1) Accordingly, applicants determined the changes in serum neopterin concentration as a marker of monocyte/macrophage activity during administration of an inhibitor of (HCV) NS3·4A protease. As described herein, VX-950 was administered for 14 days in a randomized, double blind, placebo controlled, multiple-dose study in 34 patients infected with HCV genotype 1. Patients received VX-950 450 mg q8h (n=10), 750 mg q8h (n=8), 1250 mg q12h (n=10), or placebo (n=6). Serum neopterin concentrations were measured by a quantitative competitive ELISA (ELItest® Neopterin, Brahms, Hennigsdorf, Germany) at pretreatment, at day 7 and 14, and at day 10 of follow-up. The lower limit of detection (LLD) was 2 nmol/I. HCV RNA was assessed at frequent intervals during the study by real-time PCR (COBAS TAQMAN™ HCV Test; linear dynamic range of 3.0 ×10^1 to 2.0 ×10^8 HCV RNA IU/ml; LLD of 10 HCV RNA IU/ml; Roche Diagnostics, Branchburg, N.J.).
# [3] = tested on: AST (aspartate aminotransferase); assay: AST level upon administration of VX-950; assay type: in vivo
# Text: ALT is an enzyme that is present in liver cells; when liver cells are damaged or inflamed, ALT leaks from the cell into the blood. Blood ALT levels are useful as a marker of liver inflammation or damage.
# HCV genotype 1 = assay: 14-day multiple-dose study in HCV genotype 1 subjects: HCV RNA (study VX04-950-101); assay type: in vivo, human
# Protocol: as §1
# All other 34 subjects completed the study.
# The HCV positive subjects were tested post-treatment to monitor HCV RNA levels' return to baseline.
# [4] = human, in vivo
# [5] = TVR 750 mg q8h + Peg-IFN alfa-2a + RBV (n = 40)
# [6] = TVR 750 mg q8h + Peg-IFN alfa-2b + RBV (n = 42)
# [7] = TVR 1125 mg q12h + Peg-IFN alfa-2a + RBV (n = 40)
# [8] = TVR 1125 mg q12h + Peg-IFN alfa-2b + RBV (n = 39)
# [9] = 1-week F/U, on-study, Peg-IFN-2a/RBV, N = 7 / 8 / 4 per group
compound,measurement,setting,value
CCC[C@H](NC(=O)[C@@H]1[C@H]2CCC[C@H]2CN1C(=O)[C@@H](NC(=O)[C@@H](NC(=O)c1cnccn1)C1CCCCC1)C(C)(C)C)C(=O)C(=O)NC1CC1 [VX-950],VX-950 eliminated unchanged in the urine,[1],Less than 2%
same,AE: Anemia,[2]; [5],18 (45) n (%)
same,AE: Asthenia,[2]; [5],11 (28) n (%)
same,AE: Decreased appetite,[2]; [5],8 (20) n (%)
same,AE: Diarrhea,[2]; [5],10 (25) n (%)
same,AE: Fatigue,[2]; [5],15 (38) n (%)
same,AE: Headache,[2]; [5],13 (33) n (%)
same,AE: Influenza-like illness,[2]; [5],15 (38) n (%)
same,AE: Nausea,[2]; [5],18 (45) n (%)
same,AE: Pruritus,[2]; [5],16 (40) n (%)
same,AE: Pyrexia,[2]; [5],8 (20) n (%)
same,AE: Rash,[2]; [5],26 (65) n (%)
same,AE: Vomiting,[2]; [5],7 (18) n (%)
same,AE: Anemia,[2]; [6],14 (33) n (%)
same,AE: Asthenia,[2]; [6],16 (38) n (%)
same,AE: Decreased appetite,[2]; [6],4 (10) n (%)
same,AE: Diarrhea,[2]; [6],9 (21) n (%)
same,AE: Fatigue,[2]; [6],15 (36) n (%)
same,AE: Headache,[2]; [6],18 (43) n (%)
same,AE: Influenza-like illness,[2]; [6],19 (45) n (%)
same,AE: Nausea,[2]; [6],14 (33) n (%)
same,AE: Pruritus,[2]; [6],21 (50) n (%)
same,AE: Pyrexia,[2]; [6],14 (33) n (%)
same,AE: Rash,[2]; [6],15 (36) n (%)
same,AE: Vomiting,[2]; [6],5 (12) n (%)
same,AE: Anemia,[2]; [7],14 (35) n (%)
same,AE: Asthenia,[2]; [7],7 (18) n (%)
same,AE: Decreased appetite,[2]; [7],6 (15) n (%)
same,AE: Diarrhea,[2]; [7],12 (30) n (%)
same,AE: Fatigue,[2]; [7],14 (35) n (%)
same,AE: Headache,[2]; [7],13 (33) n (%)
same,AE: Influenza-like illness,[2]; [7],11 (28) n (%)
same,AE: Nausea,[2]; [7],16 (40) n (%)
same,AE: Pruritus,[2]; [7],19 (48) n (%)
same,AE: Pyrexia,[2]; [7],8 (20) n (%)
same,AE: Rash,[2]; [7],16 (40) n (%)
same,AE: Vomiting,[2]; [7],7 (18) n (%)
same,AE: Anemia,[2]; [8],19 (49) n (%)
same,AE: Asthenia,[2]; [8],14 (36) n (%)
same,AE: Decreased appetite,[2]; [8],15 (39) n (%)
same,AE: Diarrhea,[2]; [8],13 (33) n (%)
same,AE: Fatigue,[2]; [8],15 (39) n (%)
same,AE: Headache,[2]; [8],16 (41) n (%)
same,AE: Influenza-like illness,[2]; [8],20 (51) n (%)
same,AE: Nausea,[2]; [8],22 (56) n (%)
same,AE: Pruritus,[2]; [8],22 (56) n (%)
same,AE: Pyrexia,[2]; [8],11 (28) n (%)
same,AE: Rash,[2]; [8],14 (36) n (%)
same,AE: Vomiting,[2]; [8],12 (31) n (%)
same,electrocardiographic or vital signs parameters,[2]; all T/PR arms,No relevant changes
same,HCV RNA below limit of detection (10 IU/mL) n,genotype 1 hepatitis C; [9],1 n
same,HCV RNA below limit of quantitation (30 IU/mL) n,genotype 1 hepatitis C; [9],3 n
same,HCV RNA below limit of quantitation (30 IU/mL) n,"genotype 1 hepatitis C; 12-week F/U, on-study, Peg-IFN-2a/RBV, N = 7 / 8 / 4 per group",6 n
same,Patients who achieved SVR,"genotype 1 hepatitis C; 14 days of VX-950 optionally with Peg-INF, followed by Peg-INF/ribavirin for additional 22 or 46 weeks",10 of 15
same,Undetectable HCV RNA at 24-week off study peg-IFN-2a/RBV treatment N,genotype 1 hepatitis C; N = 7 / 8 / 4 per group,7* N
same,Patients with undetectable HCV RNA at week 24,genotype 1 hepatitis C; all patients who received VX-950 (alone or with peginterferon),15 patients
same,Antiviral activity,"genotype 1 hepatitis C; as a single agent or in combination with peginterferon alfa-2a, 14 days",rapid and profound antiviral activity
same,Patients who achieved SVR,"genotype 1 hepatitis C; at least 14 days of VX-950 (alone or with peginterferon), treated for 24 weeks in total",7 of 10
same,Patients who achieved SVR,"genotype 1 hepatitis C; at least 14 days of VX-950 (alone or with peginterferon), treated for 48 weeks in total",3 of 5
same,SVR in a patient receiving a 2 week treatment of VX-950,genotype 1 hepatitis C; in vivo,SVR was achieved
same,Undetectable HCV RNA at 12 weeks follow-up after stopping peg-IFN-2a/RBV,genotype 1 hepatitis C; patients who stopped peg-IFN-2a/RBV at week 24,2 of 4
same,change in mean neopterin levels,neopterin,decreases in mean neopterin levels were smaller
same,AST levels,[3],decreased
same,Subjects with maximum change from baseline in HCV RNA >−1 to <0 log10 IU/mL,"HCV genotype 1; 450 mg q8h, 14 days (n = 10)",0 n (%)
same,Subjects with maximum change from baseline in HCV RNA >−2 to ≦−1 log10 IU/mL,"HCV genotype 1; 450 mg q8h, 14 days (n = 10)",0 n (%)
same,Subjects with maximum change from baseline in HCV RNA >−3 to ≦−2 log10 IU/mL,"HCV genotype 1; 450 mg q8h, 14 days (n = 10)",1 (10.0) n (%)
same,Subjects with maximum change from baseline in HCV RNA >−4 to ≦−3 log10 IU/mL,"HCV genotype 1; 450 mg q8h, 14 days (n = 10)",7 (70.0) n (%)
same,Subjects with maximum change from baseline in HCV RNA >−5 to ≦−4 log10 IU/mL,"HCV genotype 1; 450 mg q8h, 14 days (n = 10)",0 n (%)
same,Subjects with maximum change from baseline in HCV RNA ≧−5 log10 IU/mL,"HCV genotype 1; 450 mg q8h, 14 days (n = 10)",2 (20.0) n (%)
same,Subjects with maximum change from baseline in HCV RNA >−1 to <0 log10 IU/mL,"HCV genotype 1; 750 mg q8h, 14 days (n = 8)",0 n (%)
same,Subjects with maximum change from baseline in HCV RNA >−2 to ≦−1 log10 IU/mL,"HCV genotype 1; 750 mg q8h, 14 days (n = 8)",0 n (%)
same,Subjects with maximum change from baseline in HCV RNA >−3 to ≦−2 log10 IU/mL,"HCV genotype 1; 750 mg q8h, 14 days (n = 8)",0 n (%)
same,Subjects with maximum change from baseline in HCV RNA >−4 to ≦−3 log10 IU/mL,"HCV genotype 1; 750 mg q8h, 14 days (n = 8)",3 (37.5) n (%)
same,Subjects with maximum change from baseline in HCV RNA >−5 to ≦−4 log10 IU/mL,"HCV genotype 1; 750 mg q8h, 14 days (n = 8)",3 (37.5) n (%)
same,Subjects with maximum change from baseline in HCV RNA ≧−5 log10 IU/mL,"HCV genotype 1; 750 mg q8h, 14 days (n = 8)",2 (25.0) n (%)
same,Subjects with maximum change from baseline in HCV RNA >−1 to <0 log10 IU/mL,"HCV genotype 1; 1250 mg q12h, 14 days (n = 10)",0 n (%)
same,Subjects with maximum change from baseline in HCV RNA >−2 to ≦−1 log10 IU/mL,"HCV genotype 1; 1250 mg q12h, 14 days (n = 10)",0 n (%)
same,Subjects with maximum change from baseline in HCV RNA >−3 to ≦−2 log10 IU/mL,"HCV genotype 1; 1250 mg q12h, 14 days (n = 10)",1 (10.0) n (%)
same,Subjects with maximum change from baseline in HCV RNA >−4 to ≦−3 log10 IU/mL,"HCV genotype 1; 1250 mg q12h, 14 days (n = 10)",9 (90.0) n (%)
same,Subjects with maximum change from baseline in HCV RNA >−5 to ≦−4 log10 IU/mL,"HCV genotype 1; 1250 mg q12h, 14 days (n = 10)",0 n (%)
same,Subjects with maximum change from baseline in HCV RNA ≧−5 log10 IU/mL,"HCV genotype 1; 1250 mg q12h, 14 days (n = 10)",0 n (%)
same,Subjects with a 3 log10 reduction in HCV-RNA,"HCV genotype 1; within the first three days of treatment, of the 28 subjects receiving VX-950",26
same,overall proportion of TVR discontinuations for any reason,[4]; 4 weeks,12%
same,"Treatment discontinuations (all drugs), Any reason",[4]; 12 weeks,24 (15) n (%)
same,"Treatment discontinuations (all drugs), Due to AEs",[4]; 12 weeks,13 (8) n (%)
